Results: patent publication US9555028B2, “Drug for preventing/treating ocular disease” (JAPAN BIO PRODUCTS CO., LTD., priority 2012, dated 2017)

Key:
[1] = tested on: corneal epithelial tissue wound; assay: Wound healing effect on corneal epithelial tissue in vivo (fluorescein staining, wound area); parameters: species or system white rabbit; conditions: 100 μM solution instilled 30-50 μL/dose 4 times per day
Description: In order to examine an wound healing effect of Compound 1 on an corneal epithelial tissue, in vivo experiments were carried out using white rabbits (Slc:JW/CSKSlc:NZW strain).
Specifically, a trephine with a diameter of 8 mm was used to create a wound on a corneal epithelial tissue of a white rabbit. From the day of creating the wound, the test group was subjected to instillation administration of a solution containing 100 μM of Compound 1, which had been dissolved in a physiological saline solution, at a dosage of 30 μL to 50 μL/dose 4 times per day. The control group was subjected to instillation administration of a physiological saline solution at a dosage of 30 μL to 50 μL/dose 4 times per day. For each group, the experiment was performed at n=5.
In order to determine the area of the wound on the corneal epithelial tissue, a physiological saline solution and a fluorescein test paper were used to perform fluorescein staining of the corneal epithelial tissue; and a time course change in the area of the wound on the corneal epithelium was observed while its photographs were taken. The wound area was image-processed using Image J software and was statistically analyzed.

Muc5ac secretion = assay: In vivo instillation, then Muc5ac secreted into culture supernatant of sampled conjunctival tissue (ELISA); parameters: species or system white rabbit; conditions: 100 μM instilled 4 times per day for 3 days; tissue soaked in HBSS 1.5 and 3 hours, n=6, FIG. 4a
Description: In order to examine whether or not Compound 1 enhances Muc5ac secretion, in vivo experiments were carried out using white rabbits (Slc:JW/CSKSlc:NZW strain).
(§1) Specifically, the right eye of a white rabbit was subjected to instillation administration of a solution containing 100 μM of Compound 1, which had been dissolved in a physiological saline solution, at a dosage of 30 μL to 50 μL/dose 4 times per day. The left eye was subjected to instillation administration of a physiological saline solution as a control at a dosage of 30 μL to 50 μL/dose 4 times per day. For each group, the experiment was performed at n=6.
After 3 days with the above administration, each white domestic rabbit was euthanized and its conjunctival tissue was sampled using a trephine with a diameter of 5 mm. The sample was soaked in an HBSS; its culture supernatant was collected after an hour and a half; and further, after 3 hours, its culture supernatant and conjunctival tissue were collected. The amount of Muc5ac included in the culture supernatant was quantified using the same ELISA assay as in Example 1.

[2] = tested on: Muc5ac secretion from conjunctival tissue; assay: Ex vivo Muc5ac secretion from conjunctival tissue, culture supernatant quantified by ELISA; format: cell-based, white rabbit; conditions: for amount of Muc5ac in culture supernatant in the presence of Compound 1: n=5, FIG. 1(b)
Description: In order to examine an effect of Compound 1 on an amount of Muc5ac secretion, ex vivo experiments were carried out using a conjunctival tissue from a white rabbit (Slc:JW/CSKSlc:NZW strain).
Specifically, a trephine with a diameter of 3 mm was used to sample a conjunctival tissue from a white rabbit. Next, the tissue sample was soaked in an HBSS containing 100 μM of Compound 1 for 90 minutes, 3 hours, 6 hours, or 12 hours. The conjunctival tissue of the control group was soaked in an HBSS having a physiological saline with a volume equal to that of Compound 1. After the conjunctival tissue was soaked for a predetermined time, its culture supernatant was collected. For each group, the experiment was performed at n=5.
The amount of Muc5ac included in the culture supernatant was detected using the following assay.
Assay for Muc5ac Secretion (ELISA Assay)
First, the culture supernatant of the conjunctival tissue of the control group was diluted using an HBSS, and a standard curve was prepared at a Muc5ac concentration of 500, 250, 125, 62.5, 31.25, 15.63, and 7.81 AU/mL (AU represents an arbitrary unit). The sample solutions were diluted with an HBSS in such a manner that absorbance at a wavelength of 450 nm was fitted within a range of the absorbance of the standard curve at a wavelength of 450 nm. Next, the solutions for the standard curve, the sample solutions for the test group, and the sample solutions for the control group were added to a 96-well microplate (#3590, manufactured by Corning Incorporated) at 100 μL/well, and were incubated overnight at 40° C. For each sample, the measurement was performed at n=2.
After the solutions for the standard curve and the sample solutions were removed, 200 μL of washing buffer was used to wash the wells three times. The washing buffer (hereinafter, also referred to as a TBST solution) was prepared by adding Tween-20 at a final concentration of 0.05% to Tris buffered saline (pH 7.6).
Then, 200 μL of blocking buffer (1% bovine serum albumin-containing TBST solution) was added to each well, and the plate was incubated at room temperature for 1 hour. After the blocking buffer had been removed, a primary antibody (an anti-human Muc5ac antibody, manufactured by NeoMarkers, Inc.; Clone 45M1) solution, which was 100-fold diluted with the blocking buffer, was added to the plate at 100 μL/well, and the plate was incubated at room temperature for 1 hour. After the primary antibody solution was removed, 200 μL of the washing buffer was used to wash the wells three times.
Then, a secondary antibody (an HRP-labelled sheep anti-mouse IgG antibody, manufactured by GE Healthcare, Inc.) solution, which was 2000-fold diluted with the blocking buffer, was added to the plate at 100 μL/well, and the plate was incubated at room temperature for 1 hour. After the secondary antibody solution was removed, 200 μL of the washing buffer was used to wash the wells three times.
In order to quantify the Muc5ac content in each sample, 100 μL of 3,3′,5,5′-tetramethylbenzidine was added to each well and the plate was incubated for coloring at room temperature for 30 minutes; and then 100 μL of 0.5 M sulfuric acid solution was added to each well to stop the reaction. Next, a microplate reader was used to measure the absorbance of each well at a wavelength of 450 nm. The Muc5ac content in each sample was calculated using the standard curve. […]
The amount of Muc5ac included in the culture supernatant was detected using the same ELISA assay as in Example 1.

[3] = tested on: Muc5ac protein in conjunctival tissue; assay: In vivo instillation, then amount of Muc5ac protein in conjunctival tissue lysate (ELISA); parameters: species or system white rabbit; conditions: 100 μM instilled 4 times per day for 3 days; tissue lysate at 500 ng/μL protein, FIG. 4b
Description: as §1
After 3 days with the above administration, each white domestic rabbit was euthanized and its conjunctival tissue was sampled using a trephine with a diameter of 5 mm. […] The amount of Muc5ac included in the culture supernatant was quantified using the same ELISA assay as in Example 1.
Meanwhile, 150 μL of SDS(−) RIPA lysis buffer (manufactured by Nacalai Tesque, Inc.) was added to the conjunctival tissue collected, and the tissue was soaked and incubated at 4° C. for 30 minutes, followed by homogenization. […] After a protein concentration was measured using Nano Drop (manufactured by Thermo Scientific, Inc.), the protein concentration was adjusted to 500 ng/μL. Subsequently, the amount of Muc5ac included in the protein solution prepared was quantified using the same ELISA assay as in Example 1.

[4] = tested on: Muc5ac in conjunctival tissue; assay: In vivo instillation, then PAS staining of conjunctival tissue sections; parameters: species or system white rabbit; conditions: 100 μM instilled 4 times per day, FIG. 5
Description: as §1
Further, the conjunctival tissues from the control group and the administration group were subjected to PAS staining, which stains neutral polysaccharides and glycoproteins. Specifically, a conjunctival tissue was collected from a rabbit; the conjunctive tissue collected was cut into regions at the upper, nasal, lower, and ear sides; and paraffin sections were prepared. Next, after washed with distilled water for deparaffinization, the sections were immersed in 3% acetic acid aqueous solution and soaked in an alcian blue solution for 30 minutes. After washed with distilled water, the sections were soaked in 1% periodic acid aqueous solution for 10 minutes, washed with running water for 5 minutes, and washed with distilled water. After soaked in a cold Schiff reagent for 10 minutes, the sections were soaked in sulfurous acid solution for 3 minutes and subjected to sulfurous acid solution treatment. […]

## O=C1NC(CO)C(=O)N2CC(O)CC12 [Compound 1, cyclo-trans-4-L-hydroxyprolyl-L-serine]
[1]; from Day 1, t-test p<0.01, FIG. 3
  wound area of corneal epithelium versus control group: smaller
[1]; control group 5 days
  time required for complete cure of the wound: 4 days
Muc5ac secretion
  amount of Muc5ac in culture supernatant of conjunctival tissue compared with control group: remarkably high
[2]; 0, 1, 10 or 100 μM, soaked 6 hours, n=5, FIG. 2
  amount of Muc5ac in culture supernatant, concentration dependence: increased depending on the concentration
[2]; 100 μM in HBSS, at 6 hours of culturing
  difference in the amount of Muc5ac between presence and absence of Compound 1, across culture times: most prominent
[2]; 100 μM in HBSS, cultured 3 hours, n=5, FIG. 1(a)
  amount of Muc5ac in culture supernatant compared with absence of Compound 1: increased
[2]; 100 μM in HBSS, cultured 6 hours
  amount of Muc5ac in culture supernatant in the presence of Compound 1: increase
[2]; 100 μM in HBSS, cultured 12 hours
  amount of Muc5ac in culture supernatant in the presence of Compound 1: increase
[3]
  amount of Muc5ac protein in the conjunctival tissue versus control group: approximately equal
[4]
  amount of Muc5ac (stained red-purple) in the conjunctival tissue by PAS staining versus control group: apparently lower
